In the supplement of paper PMC10307832 one finds relative viability data, which are given here for one cell line.

Holding throughout (assay): relative viability (nuclei count vs DMSO), 5 days (fraction); higher = more cells survive
Compound in the test “YM155 + OSI-027”: COCC[n+]1c2c(n(Cc3cnccn3)c1C)C(=O)c1ccccc1C2=O [YM155] + COc1cccc2cc(-c3nc([C@H]4CC[C@H](C(=O)O)CC4)n4ncnc(N)c34)[nH]c12 [OSI-027] (partner 0.5 µM)
The essentials: (§1)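 Lung cancer cell lines were pin-tool dosed in 1536-well plates on the day after seeding, with either a lone drug or a fixed anchor-drug dose plus five library-drug doses (not always all listed) in √10 steps. Nuclei were counted on 4× images after 5 days. Relative viability is the ratio of treated-well to vehicle-well nuclei counts, with each value a median of duplicate plates.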

Compound in the test “Quizartinib + Foretinib”: CC(C)(C)c1cc(NC(=O)Nc2ccc(-c3cn4c(n3)sc3cc(OCCN5CCOCC5)ccc34)cc2)no1 [Quizartinib] + COc1cc2c(Oc3ccc(NC(=O)C4(C(=O)Nc5ccc(F)cc5)CC4)cc3F)ccnc2cc1OCCCN1CCOCC1 [Foretinib] (partner 0.25 µM)
Put shortly:
as §1

Compound in the test “Quizartinib + Lapatinib”: CC(C)(C)c1cc(NC(=O)Nc2ccc(-c3cn4c(n3)sc3cc(OCCN5CCOCC5)ccc34)cc2)no1 [Quizartinib] + CS(=O)(=O)CCNCc1ccc(-c2ccc3ncnc(Nc4ccc(OCc5cccc(F)c5)c(Cl)c4)c3c2)o1 [Lapatinib] (partner 2 µM)
Put shortly: as §1

Compound in the test “YM155 + AZD7762”: COCC[n+]1c2c(n(Cc3cnccn3)c1C)C(=O)c1ccccc1C2=O [YM155] + NC(=O)Nc1cc(-c2cccc(F)c2)sc1C(=O)N[C@H]1CCCNC1 [AZD7762] (partner 0.2 µM)
Put shortly: as §1

As to RERF-LC-KJ, the relative viability in the test with YM155 + OSI-027 (first compound 0.002 µM) came to 0.663; in the test with YM155 + OSI-027 (first compound 0.006325 µM) it was 0.637; with YM155 + OSI-027 (first compound 0.02 µM), 0.618; with YM155 + OSI-027 (first compound 0.06325 µM) it was 0.633; with Quizartinib + Foretinib (first compound 0.001 µM), 0.844; in the test with Quizartinib + Foretinib (first compound 0.003162 µM), 0.828. Besides, the relative viability in the test with Quizartinib + Foretinib (first compound 0.01 µM) stood at 0.888; with Quizartinib + Foretinib (first compound 0.03162 µM), 0.926; with Quizartinib + Foretinib (first compound 0.1 µM), 0.804; in the test with Quizartinib + Lapatinib (first compound 0.001 µM), 0.883; with Quizartinib + Lapatinib (first compound 0.003162 µM) it was 0.766; in the test with Quizartinib + Lapatinib (first compound 0.01 µM) it was 0.864. For the same cell line, the relative viability is 0.864 with Quizartinib + Lapatinib (first compound 0.03162 µM); 0.777 with Quizartinib + Lapatinib (first compound 0.1 µM); 1.04 in the test with YM155 + AZD7762 (first compound 0.002 µM); 1.19 in the test with YM155 + AZD7762 (first compound 0.006325 µM); 1.06 with YM155 + AZD7762 (first compound 0.02 µM); 1.03 with YM155 + AZD7762 (first compound 0.06325 µM).
